Assay results taken from patent publication US20190374627A1, “TARGET PEPTIDES FOR CANCER THERAPY AND DIAGNOSTICS” (priority 2016, published 2019).
Square brackets hold non-standard residues; d marks the D form. Ends that are not written are not given here. pY = N[C@@H](Cc1ccc(OP(=O)(O)O)cc1)C(=O)O; pS = N[C@@H](COP(=O)(O)O)C(=O)O

Legend:
[1] = test system: unexpanded lymphocyte cultures (CD8^+ T cells); assay: ICS for MHC-I-pP reactivity of lymphocyte cultures without expansion (Table 23, No Expansion)
CD8^+ T cells (PBMCs) = assay: Intracellular cytokine staining (ICS) of PBMCs after 7 days of stimulation with MHC-I-pP (healthy donors, HH patients); type: cell-based, human; conditions: for Reactive CD8^+ T cell population, HH2: HH patient HH2; for Reactive CD8^+ T cell population, HH3: HH patient HH3; for Reactive CD8^+ T cell population, HH6: HH patient HH6; for Reactive CD8^+ T cell population, HH8: HH patient HH8; for Reactive CD8^+ T cell population, HD1: Healthy donor HD1; for Reactive CD8^+ T cell population, HD4: Healthy donor HD4; for Reactive CD8^+ T cell population, HD5: Healthy donor HD5
In short: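 PBMCs or liver lymphocytes from HLA-A*0201-positive healthy donors and hereditary hemochromatosis patients were stimulated for 7 days with HLA-A*0201-restricted phosphopeptides and no added cytokines. After exclusion of doublets and dead cells with a fixable viability dye, CD3^+CD8^+ cells were analysed by intracellular staining for IFN-γ and TNF-α, plus CD107a where needed.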

[2] = test system: expanded TIL / IHL cultures; assay: ICS for MHC-I-pP reactivity of liver-derived lymphocyte cultures after unspecific rapid expansion protocol (REP); type: cell-based, human
[3] = test system: expanded lymphocyte cultures from deceased donor livers, cirrhotic livers and HCC; assay: ICS for MHC-I-pP reactivity of liver-derived lymphocyte cultures after phosphopeptide-specific expansion; type: cell-based, human; conditions: for ppCTL response, Deceased Donor Liver Do 2 / ppCTL response, Deceased Donor Liver Do 3 / ppCTL response, Deceased Donor Liver Do 4 / ppCTL response, Deceased Donor Liver Do 6 / ppCTL response, End-stage Liver Cirrhosis IHL 11 / ppCTL response, End-stage Liver Cirrhosis IHL 12 / ppCTL response, End-stage Liver Cirrhosis IHL 13 / ppCTL response, End-stage Liver Cirrhosis IHL 15 / ppCTL response, HCC Distal HCC 1 / ppCTL response, HCC Tumor HCC 1 / ppCTL response, HCC Distal HCC 4 / ppCTL response, HCC Distal HCC 9 / ppCTL response, HCC Tumor HCC 9 / ppCTL response, HCC Distal HCC 12: pP-specifically expanded culture; for ppCTL response, HCC Distal HCC 1: HCC 1 Distal; for ppCTL response, HCC Tumor HCC 1: HCC 1 Tumor; for ppCTL response, HCC Distal HCC 4: HCC 4 Distal; for ppCTL response, HCC Distal HCC 9: HCC 9 Distal; for ppCTL response, HCC Tumor HCC 9: HCC 9 Tumor; for ppCTL response, HCC Distal HCC 12: HCC 12 Distal

Substance | Reactive CD8^+ T cells, No Expansion, HH6 [1] | Reactive CD8^+ T cell population, HH2 (CD8^+ T cells (PBMCs)) | Reactive CD8^+ T cell population, HH3 (CD8^+ T cells (PBMCs)) | Reactive CD8^+ T cell population, HH6 (CD8^+ T cells (PBMCs)) | Reactive CD8^+ T cell population, HH8 (CD8^+ T cells (PBMCs)) | Reactive CD8^+ T cell population, HD1 (CD8^+ T cells (PBMCs)) | Reactive CD8^+ T cell population, HD4 (CD8^+ T cells (PBMCs)) | Reactive CD8^+ T cell population, HD5 (CD8^+ T cells (PBMCs)) | Reactive CD8^+ T cells, Non-specific Expansion, Do2 [2] | Reactive CD8^+ T cells, Non-specific Expansion, Do4 [2] | Reactive CD8^+ T cells, Non-specific Expansion, HH6 [2] | Reactive CD8^+ T cells, pP-specific Expansion, Do2 [3] | Reactive CD8^+ T cells, pP-specific Expansion, Do4 [3] | Reactive CD8^+ T cells, pP-specific Expansion, HH6 [3] | ppCTL response, Deceased Donor Liver Do 2 [3] | ppCTL response, Deceased Donor Liver Do 3 [3] | ppCTL response, Deceased Donor Liver Do 4 [3] | ppCTL response, Deceased Donor Liver Do 6 [3] | ppCTL response, End-stage Liver Cirrhosis IHL 11 [3] | ppCTL response, End-stage Liver Cirrhosis IHL 12 [3] | further results
VMIGsPKKV: TNS3 phosphopeptide, HLA-A*0201 (VMIG[pS]PKKV; listed as Homo sapiens) | 0 (<0.25% reactive CD8^-+ T cells) | 0 (<0.25% reactive CD8^-+ T cells) | 0 (<0.25% reactive CD8^-+ T cells) | 0 (<0.25% reactive CD8^-+ T cells) | 0 (<0.25% reactive CD8^-+ T cells) | 0 (<0.25% reactive CD8^-+ T cells) | 0 (<0.25% reactive CD8^-+ T cells) | 0 (<0.25% reactive CD8^-+ T cells) | 0 (<0.25% reactive CD8^-+ T cells) | 0 (<0.25% reactive CD8^-+ T cells) | 0 (<0.25% reactive CD8^-+ T cells) | 1 (0.25-2.5% reactive CD8^-+ T cells) | 0 (<0.25% reactive CD8^-+ T cells) | 0 (<0.25% reactive CD8^-+ T cells) | 2 (2.5-5.0% reactive CD8-+ T cells) | 0 (<0.25% reactive CD8-+ T cells) | 0 (<0.25% reactive CD8-+ T cells) | 0 (<0.25% reactive CD8-+ T cells) | 0 (<0.25% reactive CD8-+ T cells) | 0 (<0.25% reactive CD8-+ T cells) | Reactive CD8^+ T cells, No Expansion, Do4 ([1]; Do4): 0 (<0.25% reactive CD8^-+ T cells); Reactive CD8^+ T cell population, HH10 (CD8^+ T cells (PBMCs); HH patient HH10): 1 (0.25-2.5% reactive CD8^-+ T cells); Reactive CD8^+ T cell population, HH11 (CD8^+ T cells (PBMCs); HH patient HH11): 0 (<0.25% reactive CD8^-+ T cells); Reactive CD8^+ T cell population, HD2 (CD8^+ T cells (PBMCs); Healthy donor HD2): 0 (<0.25% reactive CD8^-+ T cells); Reactive CD8^+ T cell population, HD3 (CD8^+ T cells (PBMCs); Healthy donor HD3): 0 (<0.25% reactive CD8^-+ T cells); ppCTL response, End-stage Liver Cirrhosis IHL 13 [3]: 0 (<0.25% reactive CD8-+ T cells); ppCTL response, End-stage Liver Cirrhosis IHL 15 [3]: 0 (<0.25% reactive CD8-+ T cells); ppCTL response, HCC Distal HCC 1 [3]: 0 (<0.25% reactive CD8-+ T cells); ppCTL response, HCC Tumor HCC 1 [3]: 0 (<0.25% reactive CD8-+ T cells); ppCTL response, HCC Distal HCC 4 [3]: 0 (<0.25% reactive CD8-+ T cells); ppCTL response, HCC Distal HCC 9 [3]: 0 (<0.25% reactive CD8-+ T cells); ppCTL response, HCC Tumor HCC 9 [3]: 0 (<0.25% reactive CD8-+ T cells); ppCTL response, HCC Distal HCC 12 [3]: 0 (<0.25% reactive CD8-+ T cells)
yLQSRYYRA: HIPK3 phosphopeptide, HLA-A*0201 ([pY]LQSRYYRA; listed as Homo sapiens) | 1 (0.25-2.5% reactive CD8^-+ T cells) | 0 (<0.25% reactive CD8^-+ T cells) | 0 (<0.25% reactive CD8^-+ T cells) | 1 (0.25-2.5% reactive CD8^-+ T cells) | 0 (<0.25% reactive CD8^-+ T cells) | 0 (<0.25% reactive CD8^-+ T cells) | 0 (<0.25% reactive CD8^-+ T cells) | 0 (<0.25% reactive CD8^-+ T cells) | 0 (<0.25% reactive CD8^-+ T cells) | 0 (<0.25% reactive CD8^-+ T cells) | 0 (<0.25% reactive CD8^-+ T cells) | 2 (2.5-5.0% reactive CD8^-+ T cells) | 0 (<0.25% reactive CD8^-+ T cells) | 0 (<0.25% reactive CD8^-+ T cells) | 2 (2.5-5.0% reactive CD8-+ T cells) | 0 (<0.25% reactive CD8-+ T cells) | 0 (<0.25% reactive CD8-+ T cells) | 0 (<0.25% reactive CD8-+ T cells) | 0 (<0.25% reactive CD8-+ T cells) | 0 (<0.25% reactive CD8-+ T cells) | ppCTL response, End-stage Liver Cirrhosis IHL 13 [3]: 0 (<0.25% reactive CD8-+ T cells); ppCTL response, End-stage Liver Cirrhosis IHL 15 [3]: 0 (<0.25% reactive CD8-+ T cells); ppCTL response, HCC Distal HCC 1 [3]: 0 (<0.25% reactive CD8-+ T cells); ppCTL response, HCC Tumor HCC 1 [3]: 0 (<0.25% reactive CD8-+ T cells); ppCTL response, HCC Distal HCC 4 [3]: 0 (<0.25% reactive CD8-+ T cells); ppCTL response, HCC Distal HCC 9 [3]: 0 (<0.25% reactive CD8-+ T cells); ppCTL response, HCC Tumor HCC 9 [3]: 1 (0.25-2.5% reactive CD8-+ T cells); ppCTL response, HCC Distal HCC 12 [3]: 0 (<0.25% reactive CD8-+ T cells)
